# Assay results reported in the supplement of paper PMC10331698.
# ± gives the standard deviation of the averaged measurements.
# Key:
# Experiment in all cases: level (log10 ratio to DMSO vehicle control); higher = higher biomarker level / cell amount than vehicle control
# Conditions in all cases: in DMSO
# [1] = compound: FC(F)C(F)(F)COCC1CO1 [((2,2,3,3-Tetrafluoropropoxy)methyl)oxirane]
# Protocol: (§1)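 BioMAP Diversity Plus panel of 12 human primary cell co-culture systems (3C, 4H, LPS, SAg, BT, BF4T, BE3C, CASM3C, HDF3CGF, KF3CT, MyoF, Mphg). Compounds were added 1 h before stimulation and left for 24 h (MyoF 48 h; BT 72 h for soluble read-outs or 6 d for IgG). Biomarkers were read by ELISA, cytotoxicity by SRB, PBMC viability and proliferation by Alamar Blue. Each well value was divided by the mean of 8 DMSO control wells on the same plate and log10 transformed; duplicate blinded samples were tested at 4 concentrations.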
# [2] = compound: C=CC(F)(F)C(F)(F)C(F)(F)C(F)(F)C(F)(F)C(F)(F)C(F)(F)C(F)(F)C=C [1,8-Divinylperfluorooctane]
# Protocol: as §1
# Heptafluorobutyramide = compound: NC(=O)C(F)(F)C(F)(F)C(F)(F)F [Heptafluorobutyramide]
# Protocol: as §1
# [3] = compound: O=C(O)C(F)(F)OC(F)(F)C(F)(F)OC(F)(F)F [Perfluoro-3,6-dioxaheptanoic acid]
# Protocol: as §1
# [4] = compound: C=C(C)C(=O)OCCC(F)(F)C(F)(F)C(F)(F)C(F)(F)C(F)(C(F)(F)F)C(F)(F)F [(Perfluoro-5-methylhexyl)ethyl 2-methylprop-2-enoate]
# Protocol: as §1
# Pentafluoropropionamide = compound: NC(=O)C(F)(F)C(F)(F)F [Pentafluoropropionamide]
# Protocol: as §1
# [5] = compound: NCC(F)(F)C(F)(F)C(F)(F)C(F)(F)C(F)(F)C(F)(F)C(F)(F)F [1H,1H-Perfluorooctylamine]
# Protocol: as §1
Test System,level (log10) ([1]; 6700 nM),level (log10) ([1]; 20000 nM),level (log10) ([1]; 60000 nM),level (log10) ([2]; 6700 nM),level (log10) ([2]; 20000 nM),level (log10) (Heptafluorobutyramide; 6700 nM),level (log10) (Heptafluorobutyramide; 20000 nM),level (log10) (Heptafluorobutyramide; 60000 nM),level (log10) ([3]; 6700 nM),level (log10) ([3]; 20000 nM),level (log10) ([3]; 60000 nM),level (log10) ([4]; 6700 nM),level (log10) ([4]; 20000 nM),level (log10) (Pentafluoropropionamide; 6700 nM),level (log10) (Pentafluoropropionamide; 20000 nM),level (log10) (Pentafluoropropionamide; 60000 nM),level (log10) ([5]; 6700 nM),level (log10) ([5]; 20000 nM),level (log10) ([5]; 60000 nM)
lMphg:SRB-Mphg,0.0075 ± 0.016,0.021 ± 0.025,0.02 ± 0.033,-0.0135 ± 0.016,0.0495 ± 0.0092,-0.038 ± 0.0071,-0.0175 ± 0.0021,0.0155 ± 0.036,-0.053 ± 0.0014,-0.079 ± 0.13,-0.076 ± 0.19,0.0015 ± 0.011,-0.0095 ± 0.021,-0.0135 ± 0.074,0.0555 ± 0.043,0.0595 ± 0.0078,-0.0055 ± 0.005,-0.007 ± 0.0042,0.0055 ± 0.032
BE3C:tPA,-0.006 ± 0.031,-0.015 ± 0.024,-0.0165 ± 0.00071,-0.0145 ± 0.0021,-0.0015 ± 0.015,-0.027 ± 0.017,-0.0055 ± 0.0021,-0.0115 ± 0.028,-0.025 ± 0.0099,-0.0485 ± 0.0021,-0.03 ± 0.033,-0.0245 ± 0.00071,-0.0325 ± 0.021,-0.0055 ± 0.012,-0.001 ± 0.018,0.003 ± 0.02,-0.035 ± 0.016,-0.001 ± 0.034,-0.0145 ± 0.028
KF3CT:PAI-I,0.004,-0.0085 ± 0.005,-0.0015 ± 0.012,0.0215 ± 0.00071,0.018 ± 0.013,-0.0145 ± 0.0035,-0.011 ± 0.0028,0.0105 ± 0.012,0.0035 ± 0.096,0.009 ± 0.0085,0.008 ± 0.072,-0.035 ± 0.047,-0.05 ± 0.018,-0.006 ± 0.0057,0.002 ± 0.0014,0.0075 ± 0.0021,-0.0025 ± 0.005,-0.001 ± 0.0014,0.003 ± 0.014
lMphg:CXCL8/IL-8,-0.0125 ± 0.066,-0.001 ± 0.017,-0.005 ± 0.011,0.0055 ± 0.026,0.0125 ± 0.064,0.0095 ± 0.035,-0.0195 ± 0.0064,0.032 ± 0.038,0.026 ± 0.017,0.068 ± 0.051,0.167 ± 0.074,-0.0035 ± 0.011,0.006 ± 0.0028,0.007 ± 0.0071,0.001 ± 0.04,-0.004 ± 0.013,0.008 ± 0.031,0.018 ± 0.025,0.01 ± 0.013
BE3C:PAI-I,-0.0145 ± 0.028,-0.015 ± 0.034,-0.011 ± 0.018,0.016 ± 0.017,0.016 ± 0.016,-0.0065 ± 0.00071,-0.0025 ± 0.00071,-0.0115 ± 0.015,-0.037 ± 0.055,0.0125 ± 0.053,0.0055 ± 0.018,0.007 ± 0.03,0.0205 ± 0.019,0.002 ± 0.0057,-0.009 ± 0.03,-0.016 ± 0.0028,-0.0075 ± 0.028,-0.008 ± 0.014,-0.002 ± 0.04
HDF3CGF:Collagen I,-0.03 ± 0.0042,-0.038 ± 0.013,0.022 ± 0.11,0.043 ± 0.054,0.0595 ± 0.016,0.0065 ± 0.011,-0.0025 ± 0.015,0.0155 ± 0.069,0.0055 ± 0.0064,0.049 ± 0.0085,0.069 ± 0.0014,0.0115 ± 0.067,0.034 ± 0.092,0.039 ± 0.075,0.0205 ± 0.033,0.055 ± 0.047,-0.047,-0.0275 ± 0.0078,0.028 ± 0.081
CASM3C:M-CSF,-0.0115 ± 0.021,-0.029 ± 0.0014,-0.0025 ± 0.084,-0.0375 ± 0.011,-0.0235 ± 0.023,-0.0495 ± 0.0035,-0.0375 ± 0.018,0.022 ± 0.073,-0.09 ± 0.035,-0.02 ± 0.023,0.034 ± 0.0014,-0.009 ± 0.0085,0.0195 ± 0.036,-0.021 ± 0.038,-0.0125 ± 0.00071,0.0205 ± 0.035,-0.059 ± 0.027,-0.0055 ± 0.0078,0.0115 ± 0.061
CASM3C:CXCL9/MIG,0.002 ± 0.0085,-0.009 ± 0.02,0.014 ± 0.062,-0.013 ± 0.0085,-0.0115 ± 0.011,-0.0035 ± 0.00071,-0.01 ± 0.0014,0.0005 ± 0.011,0.028 ± 0.058,0.0245 ± 0.083,0.0415 ± 0.087,0.0335 ± 0.029,0.0445 ± 0.046,0 ± 0.0014,-0.0035 ± 0.005,-0.008 ± 0.0042,-0.014 ± 0.021,-0.0245 ± 0.0021,0.006 ± 0.04
KF3CT:CXCL10/IP-10,-0.002 ± 0.0028,-0.0005 ± 0.0035,-0.0015 ± 0.022,-0.001 ± 0.018,-0.0135 ± 0.005,0.002 ± 0.0042,0.0015 ± 0.0078,0.005 ± 0.0099,-0.0085 ± 0.00071,-0.0055 ± 0.005,0.003 ± 0.013,-0.0085 ± 0.012,-0.0325 ± 0.00071,-0.007 ± 0.0014,0 ± 0.0028,-0.0145 ± 0.0035,-0.0045 ± 0.00071,-0.0075 ± 0.011,-0.003
HDF3CGF:CXCL9/MIG,-0.001 ± 0.013,0.0115 ± 0.023,-0.009 ± 0.028,0.006 ± 0.0057,-0.001 ± 0.024,0.0055 ± 0.026,0.0035 ± 0.019,-0.0225 ± 0.025,-0.011 ± 0.014,0.0145 ± 0.0064,-0.02 ± 0.047,0.0135 ± 0.00071,0.0095 ± 0.011,-0.016 ± 0.0042,0.0095 ± 0.00071,0.0015 ± 0.0078,-0.006 ± 0.018,-0.0205 ± 0.011,-0.0115 ± 0.005
